≈ marks a conversion by molar mass, not a printed value. Read-outs that look alike come from different tables or passages of the source. One block for each molecule: values may come before it. *1 amine or outer side, *2 acyl side, *3 side chain or, on linkers, in order; H or OH if unused. Where a SMILES comes first, the peptide text is derived from it. Bridges are numbered along the chain shown (N, C = ends). [ ]: non-standard residue; d: D form. The star is where a group is joined. hTyr(3S-OH,4S-OH,3'-OSO3H) = N[C@H](C(=O)O)[C@H](O)[C@@H](O)c1ccc(O)c(OS(=O)(=O)O)c1; pTerphenylCO(4''-OnC5H11) = CCCCCOc1ccc(-c2ccc(-c3ccc(C(=O)*)cc3)cc2)cc1; Orn(4R-OH,5R-OH) = O=C([C@H](C[C@@H](O)[C@@H](O)N[*:3])N[*:1])[*:2]; hTyr(3S-OH,4S-OH) = N[C@H](C(=O)O)[C@H](O)[C@@H](O)c1ccc(O)cc1; Pro(3S-OH,4S-Me) = C[C@H]1CN[C@H](C(=O)O)[C@H]1O; X1 = CCCCCOc1ccc(-c2cc(-c3ccc(C(=O)*)cc3)no2)cc1; Gln(3R-OH) = NC(=O)C[C@@H](O)[C@H](N)C(=O)O; Hyp = O=C(O)[C@@H]1C[C@@H](O)CN1
What was measured:
Candida albicans v47a3 = experiment: Sensitivity to conventional antimycotics, broth dilution method; type: cell-based
From the text: The clinical isolate of Candida albicans (v47a3) was collected from the patient with human immunodeficiency virus (HIV) infection and mucosal candidiasis and provided by G.N. Gabrichevsky Research Institute for Epidemiology and Microbiology (Moscow, Russia). This strain was susceptible to conventional antifungal agents except for a slight increase in the minimal inhibitory concentrations for triazole derivatives as was shown using the broth dilution method according to [31] (Supporting Materials, Tables S2 and S3). Strain stock was kept at −70 °C in 10% non-fat milk with 10% glycerol. Melittin (>98% pure) synthesized using a standard solid-phase method was provided by Dr. Sergey V. Sychev in M.M. Shemyakin and Yu.A. Ovchinnikov Institute of Bioorganic Chemistry of the Russian Academy of Sciences (Moscow, Russia).

[1] = tested on: human peripheral blood mononuclear cells (PBMCs); experiment: Resazurin-based cell cytotoxicity assay; conditions: PBMCs, 24 h, read-out: concentration inducing 50% cell death
Procedure: The cytotoxic properties of the pea defensin Psd1 were investigated by resazurin-based cell cytotoxicity assay as previously described. In brief, PBMCs were seeded in 96-well plates at 2 × 10^6 cells per well in RPMI-1640 supplemented with 10% FBS and kept in a CO2 incubator for 24 h. After this, serial two-fold dilutions of defensin in a complete culture medium were added to the wells at final concentrations from 0.2 to 50 μM and the plates were incubated for 24 h. Resazurin (Sigma) was added at a final concentration of 70 µM, and the plates were incubated overnight (16–18 h). Fluorescent resorufin was registered using a 535/595 filter at PlateReader AF2200 (Eppendorf). Untreated cells were used as negative controls. Non-ionogenic detergent Triton X-100 and membrane-active peptide melittin from honeybee venom were used as positive controls. The cell viability was calculated according to the following equation: cell viability (%) = (Fsample/Fcontrol) × 100%. Cell lysis was monitored with an Olympus CKX41 microscope.

Caco-2 cells = conditions: known model substrates of efflux pumps; no reference given; cited from earlier work
[2] = V47A3, MIC = 50% growth inhibition, broth dilution according to EUCAST E.DEF 7.3.2, read-out: MICs

Molecule: CCC(C)n1ncn(-c2ccc(N3CCN(c4ccc(OCC5COC(Cn6cncn6)(c6ccc(Cl)cc6Cl)O5)cc4)CC3)cc2)c1=O (stereo not shown) [Itraconazole]
- MIC (Candida albicans v47a3; [2]): 0.12 µg/mL (≈ 0.17 µM)

Molecule: melittin [reference compound]
- IC50 [1]: 6.25 µM

Molecule: C[C@H]1O[C@@H](O[C@H]2[C@@H](O)C[C@H](O[C@H]3[C@@H](O)C[C@H](O[C@H]4CC[C@@]5(C)[C@H](CC[C@@H]6[C@@H]5C[C@@H](O)[C@]5(C)[C@@H](C7=CC(=O)OC7)CC[C@]65O)C4)O[C@@H]3C)O[C@@H]2C)C[C@H](O)[C@@H]1O [digoxin]
- efflux ratio (ER) (Caco-2 cells): > 10

Molecule: C[C@@H](c1ncncc1F)[C@](O)(Cn1cncn1)c1ccc(F)cc1F [Voriconazole]
- MIC (Candida albicans v47a3; [2]): 0.5 µg/mL (≈ 1.43 µM)

Molecule: OC(Cn1cncn1)(Cn1cncn1)c1ccc(F)cc1F [Fluconazole]
- MIC (Candida albicans v47a3; [2]): 8 µg/mL (≈ 26.1 µM)

- MIC (Candida albicans v47a3; V47A3, MIC = >90% inhibition of fungal growth, broth dilution according to EUCAST E.DEF 7.3.2, read-out: MICs): 0.5 µg/mL (≈ 0.541 µM)
Molecule: C[C@@H]1[C@H](O)[C@@H](C)/C=C/C=C/C=C/C=C/C=C/C=C/C=C/[C@H](O[C@@H]2O[C@H](C)[C@@H](O)[C@H](N)[C@@H]2O)C[C@@H]2O[C@](O)(C[C@@H](O)C[C@@H](O)[C@H](O)CC[C@@H](O)C[C@@H](O)CC(=O)O[C@H]1C)C[C@H](O)[C@H]2C(=O)O [Amphotericin B]

- MIC (Candida albicans v47a3; [2]): ≤ 0.06 µg/mL
Molecule: Nc1[nH]c(=O)ncc1F [Flucytosine]

Molecule: CCCCCOc1ccc(-c2ccc(-c3ccc(C(=O)N[C@H]4C[C@@H](O)[C@@H](O)NC(=O)[C@@H]5[C@@H](O)[C@@H](C)CN5C(=O)[C@H]([C@@H](C)O)NC(=O)[C@H]([C@H](O)[C@@H](O)c5ccc(O)cc5)NC(=O)[C@@H]5C[C@@H](O)CN5C(=O)[C@H]([C@@H](C)O)NC4=O)cc3)cc2)cc1 [Anidulafungin] ({pTerphenylCO(4''-OnC5H11)}-[Orn(4R-OH,5R-OH)]T[Hyp][hTyr(3S-OH,4S-OH)]T[Pro(3S-OH,4S-Me)]; lactam 1-C)
- MIC (Candida albicans v47a3; V47A3, read-out: MICs): 0.03 µg/mL (≈ 0.0263 µM)

Molecule: O=C1c2c(O)ccc(O)c2C(=O)c2c(NCCNCCO)ccc(NCCNCCO)c21 [mitoxantrone]
- efflux ratio (ER) (Caco-2 cells): > 10

Molecule: CC[C@@H]([C@H](C)O)n1ncn(-c2ccc(N3CCN(c4ccc(OC[C@@H]5CO[C@@](Cn6cncn6)(c6ccc(F)cc6F)C5)cc4)CC3)cc2)c1=O [Posaconazole]
- MIC (Candida albicans v47a3; [2]): 0.12 µg/mL (≈ 0.171 µM)

Molecule: CC[C@]1(O)C[C@@H]2CN(CCc3c([nH]c4ccccc34)[C@@](C(=O)OC)(c3cc4c(cc3OC)N(C)[C@H]3[C@@](O)(C(=O)OC)[C@H](OC(C)=O)[C@]5(CC)C=CCN6CC[C@]43[C@@H]65)C2)C1 [vinblastine]
- efflux ratio (ER) (Caco-2 cells): > 10

Molecule: CCCCCOc1ccc(-c2cc(-c3ccc(C(=O)N[C@H]4C[C@@H](O)[C@@H](O)NC(=O)[C@@H]5[C@@H](O)[C@@H](C)CN5C(=O)[C@H]([C@H](O)CC(N)=O)NC(=O)[C@H]([C@H](O)[C@@H](O)c5ccc(O)c(OS(=O)(=O)O)c5)NC(=O)[C@@H]5C[C@@H](O)CN5C(=O)[C@H]([C@@H](C)O)NC4=O)cc3)no2)cc1 [Micafungin] (X1-[Orn(4R-OH,5R-OH)]T[Hyp][hTyr(3S-OH,4S-OH,3'-OSO3H)][Gln(3R-OH)][Pro(3S-OH,4S-Me)]; lactam 1-C)
- MIC (Candida albicans v47a3; V47A3, read-out: MICs): 0.008 µg/mL (≈ 0.0063 µM)

Molecule: CC[C@H](C)C[C@H](C)CCCCCCCCC(=O)N[C@H]1C[C@@H](O)[C@@H](NCCN)NC(=O)[C@@H]2[C@@H](O)CCN2C(=O)[C@H]([C@H](O)CCN)NC(=O)[C@H]([C@H](O)[C@@H](O)c2ccc(O)cc2)NC(=O)[C@@H]2C[C@@H](O)CN2C(=O)[C@H]([C@@H](C)O)NC1=O [Caspofungin]
- MIC (Candida albicans v47a3; V47A3, read-out: MICs): 0.06 µg/mL (≈ 0.0549 µM)

Source: paper PMC10178127, “Immunomodulatory Effects of the Pea Defensin Psd1 in the Caco-2/Immune Cells Co-Culture upon Candida albicans Infection” (International Journal of Molecular Sciences, 2023)
